According to ChEMBL document CHEMBL1152680, “Peptide inhibitors of HIV-1 integrase: from mechanistic studies to improved lead compounds” (Bioorg Med Chem, 2009):
The source made the active and inactive calls. The calls are words filed in the database; no cut-off is given here.

Tests used:
[1] = biological target: Human immunodeficiency virus type 1 integrase (Human immunodeficiency virus 1) (UniProt Q7ZJM1); experiment: Inhibition of integration activity of histidine-tagged HIV1 full length integrase at enzyme to peptide molar ratio of 1:50; settings: concentration not given here
[2] = biological target: Human immunodeficiency virus type 1 integrase (Human immunodeficiency virus 1) (UniProt Q7ZJM1); experiment: Binding affinity to HIV1 integrase DNA binding domain (240-260) by ELISA
[3] = biological target: Human immunodeficiency virus type 1 integrase (Human immunodeficiency virus 1) (UniProt Q7ZJM1); experiment: Ratio of compound to IN1 activity for inhibition of viral DNA binding to histidine-tagged HIV1 full length integrase
[4] = biological target: Human immunodeficiency virus type 1 integrase (Human immunodeficiency virus 1) (UniProt Q7ZJM1); experiment: Inhibition of histidine-tagged HIV1 full length integrase assessed as inhibition of viral DNA integration into human SupT1 cellular genome at 62.5 uM treated 2 hrs before viral infection measured after 24 hrs by real time PCR analysis; assay type: cell-based
[5] = tested on: Human immunodeficiency virus 1; experiment: Antiviral activity against HIV1 infected in human SupT1 cells assessed as change in total amount of viral DNA at 0.5 to 62.5 uM treated 2 hrs before viral infection measured after 24 hrs by real time PCR analysis; assay type: functional, organism-based; settings: SUP-T1
[6] = Cellular uptake in nucleus of human HeLa cells at 10 uM after 2 hrs by confocal microscopy; assay type: ADME, cell-based
[7] = Cellular uptake in cytoplasm of human HeLa cells at 10 uM after 2 hrs by confocal microscopy; assay type: ADME, cell-based
[8] = biological target: T1, Human immunodeficiency virus type 1 integrase (Human immunodeficiency virus 1, UniProt Q7ZJM1); experiment: Binding affinity to histidine-tagged HIV1 full length integrase by fluorescence anisotropy
[9] = tested on: Human immunodeficiency virus 1; experiment: Antiviral activity against HIV1 infected in human TZM-bl cells assessed as inhibition of viral replication treated 2 hrs before viral infection; assay type: functional, organism-based
[10] = biological target: Human immunodeficiency virus type 1 integrase (Human immunodeficiency virus 1) (UniProt Q7ZJM1); experiment: Inhibition of viral DNA binding to dimeric histidine-tagged HIV1 full length integrase treated for 20 mins before addition of fluorescein-labeled viral LTR DNA by fluorescence anisotropy
[11] = biological target: Human immunodeficiency virus type 1 integrase (Human immunodeficiency virus 1) (UniProt Q7ZJM1); experiment: Binding affinity to dimeric histidine-tagged HIV1 full length integrase by analytical gel filtration
[12] = biological target: Human immunodeficiency virus type 1 integrase (Human immunodeficiency virus 1) (UniProt Q7ZJM1); experiment: Binding affinity to HIV1 integrase catalytic core domain (118-132) by ELISA
[13] = tested on: Human immunodeficiency virus 1; experiment: Antiviral activity against HIV1 infected in human TZM-bl cells assessed as inhibition of viral replication at 62.5 uM treated 2 hrs before viral infection measured after 2 days by MAGI assay; assay type: functional; settings: Human immunodeficiency virus 1, TZM-bl
[14] = biological target: Human immunodeficiency virus type 1 integrase (Human immunodeficiency virus 1) (UniProt Q7ZJM1); experiment: Inhibition of integration activity of histidine-tagged HIV1 full length integrase at 76 uM
[15] = biological target: Human immunodeficiency virus type 1 integrase (Human immunodeficiency virus 1) (UniProt Q7ZJM1); experiment: Binding affinity to tetrameric histidine-tagged HIV1 full length integrase by analytical gel filtration
[16] = biological target: Human immunodeficiency virus type 1 integrase (Human immunodeficiency virus 1) (UniProt Q7ZJM1); experiment: Binding affinity to HIV1 integrase catalytic core domain (94-112) by ELISA
[17] = biological target: Human immunodeficiency virus type 1 integrase (Human immunodeficiency virus 1) (UniProt Q7ZJM1); experiment: Inhibition of viral DNA binding to tetrameric histidine-tagged HIV1 full length integrase treated for 20 mins before addition of fluorescein-labeled viral LTR DNA by fluorescence anisotropy
[18] = Solubility of the compound; assay type: physicochemical
[19] = biological target: Human immunodeficiency virus type 1 integrase (Human immunodeficiency virus 1) (UniProt Q7ZJM1); experiment: Binding affinity to HIV1 integrase catalytic core domain (70-84) by ELISA
[20] = biological target: T1, Human immunodeficiency virus type 1 integrase; experiment: Binding affinity to tetrameric histidine-tagged HIV1 full length integrase by fluorescence anisotropy

Sequence of Human immunodeficiency virus type 1 integrase (Human immunodeficiency virus 1) (Q7ZJM1 as listed by the source): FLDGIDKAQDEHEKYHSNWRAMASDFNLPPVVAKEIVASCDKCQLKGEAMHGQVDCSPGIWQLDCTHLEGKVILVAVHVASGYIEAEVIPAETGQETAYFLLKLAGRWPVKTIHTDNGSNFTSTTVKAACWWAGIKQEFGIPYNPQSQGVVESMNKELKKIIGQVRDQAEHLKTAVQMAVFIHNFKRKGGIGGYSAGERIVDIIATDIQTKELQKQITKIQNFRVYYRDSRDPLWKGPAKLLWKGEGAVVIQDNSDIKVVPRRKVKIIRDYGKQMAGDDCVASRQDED
T1 sequence (Q7ZJM1 whole entry): as the sequence (Q7ZJM1 as listed by the source) above

H-WFVLLTITVLR-OH [WFVLLTITVLR]
inhibition [1]: 24%
Activity [2]: Active
Ratio [3]: 2
inhibition [4]: 23%
Activity [5]: inactive
Drug uptake [6]: Active
Drug uptake [7]: Active
Kd ([8]; read-out: Kd): 1800 nM
inhibition [9]: Dose-dependent effect
inhibition [10]: Active
Activity [11]: Active
Activity [12]: Active
inhibition at 62.5 µM [13]: 29%

H-WITVLR-OH
Kd [8]: Not Active
inhibition [9]: Dose-dependent effect
inhibition [10]: Active

H-WQCLTLTHRGFVLLTITVLR-OH
Activity [2]: Active
inhibition [14]: 77%
Activity [15]: Active
inhibition [4]: 63%
Activity [16]: Active
Activity [5]: inactive
inhibition [17]: Active
inhibition [9]: Dose-dependent effect
solubility [18]: Soluble
Activity [12]: Active
Activity [19]: Active
Kd [20]: 8700 nM
inhibition at 62.5 µM [13]: 70%

H-WQSLTLTHRG-OH
inhibition [1]: 62%
inhibition [4]: 51%
Activity [5]: inactive
Drug uptake [6]: Active
Drug uptake [7]: Active
Kd ([8]; read-out: Kd): 1200 nM
inhibition [9]: Dose-dependent effect
inhibition [10]: Active
inhibition at 62.5 µM [13]: 60%

H-WQCLTLTHRG-OH
Ratio [3]: 2
inhibition [14]: 73%
inhibition [4]: 64%
Activity [16]: Active
Activity [5]: inactive
Drug uptake [6]: Active
Drug uptake [7]: Active
Kd ([8]; read-out: Kd): 1700 nM
inhibition [9]: Dose-dependent effect
inhibition [10]: Active
Activity [11]: Active
Activity [12]: Active
inhibition at 62.5 µM [13]: 68%
